Results as given in the NIST ThermoML archive (doi:10.1016/j.fluid.2014.11.020).
± gives the expanded uncertainty stated by the source.

Test: activity coefficient (dimensionless); of the first substance listed, at infinite dilution; xn = mol fraction of the nth substance listed
Conditions: Liquid, Chromatography, x1 = 0

| Structure (SMILES) | activity coefficient (323.15 K) | activity coefficient (333.15 K) | activity coefficient (343.15 K) |
| --- | --- | --- | --- |
| CO [methanol] + CCCOC[n+]1ccc(N(C)C)cc1.O=S(=O)([N-]S(=O)(=O)C(F)(F)F)C(F)(F)F | 1.28 ± 0.08 | 1.23 ± 0.08 | 1.16 ± 0.07 |
| CO [methanol] + CCCOC[n+]1ccn(C)c1.F[B-](F)(F)F | 1.29 ± 0.08 | 1.2 ± 0.08 | 1.11 ± 0.07 |
| CO [methanol] + CCCOC[n+]1ccn(C)c1.N#C[N-]C#N | 0.44 ± 0.04 | 0.44 ± 0.04 | 0.45 ± 0.04 |
| CO [methanol] + CCCOC[n+]1ccn(C)c1.O=S(=O)([N-]S(=O)(=O)C(F)(F)F)C(F)(F)F | 1.2 ± 0.08 | 1.12 ± 0.07 | 1.04 ± 0.07 |
| CO [methanol] + CCCOC[n+]1ccn(Cc2ccccc2)c1.F[B-](F)(F)F | 1.13 ± 0.07 | 1.04 ± 0.07 | 0.97 ± 0.06 |
| CO [methanol] + CCCOC[n+]1ccn(Cc2ccccc2)c1.N#C[N-]C#N | 0.39 ± 0.03 | 0.4 ± 0.03 | 0.4 ± 0.03 |
| CO [methanol] + CN(C)c1cc[n+](COCCCOC[n+]2ccc(N(C)C)cc2)cc1.O=S(=O)([N-]S(=O)(=O)C(F)(F)F)C(F)(F)F.O=S(=O)([N-]S(=O)(=O)C(F)(F)F)C(F)(F)F | 0.91 ± 0.06 | 0.86 ± 0.06 | 0.79 ± 0.05 |
| CO [methanol] + Cn1cc[n+](COCCCOC[n+]2ccn(C)c2)c1.N#C[N-]C#N.N#C[N-]C#N | 0.38 ± 0.03 | 0.38 ± 0.03 | 0.37 ± 0.03 |
| CO [methanol] + Cn1cc[n+](COCCCOC[n+]2ccn(C)c2)c1.O=S(=O)([N-]S(=O)(=O)C(F)(F)F)C(F)(F)F.O=S(=O)([N-]S(=O)(=O)C(F)(F)F)C(F)(F)F | 0.76 ± 0.05 | 0.75 ± 0.05 | 0.68 ± 0.05 |
| CO [methanol] + N#C[N-]C#N.N#C[N-]C#N.c1ccc(Cn2cc[n+](COCCCOC[n+]3ccn(Cc4ccccc4)c3)c2)cc1 | 0.52 ± 0.04 | 0.51 ± 0.04 | 0.52 ± 0.04 |
| CC1CCCCC1 [methylcyclohexane] + CCCCCCCCn1cc[n+](COCCC)c1C.N#C[N-]C#N | 5.11 ± 0.35 | 4.86 ± 0.33 | 4.81 ± 0.33 |
| CC1CCCCC1 [methylcyclohexane] + CCCCCCCCn1cc[n+](COCCC)c1C.O=S(=O)([N-]S(=O)(=O)C(F)(F)F)C(F)(F)F | 3.09 ± 0.21 | 2.91 ± 0.2 | 2.8 ± 0.19 |
| CC1CCCCC1 [methylcyclohexane] + CCCCCCCCn1cc[n+](COCCCOC[n+]2ccn(CCCCCCCC)c2C)c1C.N#C[N-]C#N.N#C[N-]C#N | 5.75 ± 0.39 | 5.07 ± 0.35 | 4.82 ± 0.33 |
| CC1CCCCC1 [methylcyclohexane] + CCCCCCCCn1cc[n+](COCCCOC[n+]2ccn(CCCCCCCC)c2C)c1C.O=S(=O)([N-]S(=O)(=O)C(F)(F)F)C(F)(F)F.O=S(=O)([N-]S(=O)(=O)C(F)(F)F)C(F)(F)F | 2.94 ± 0.2 | 2.71 ± 0.18 | 2.73 ± 0.19 |
| CC1CCCCC1 [methylcyclohexane] + CCCOC[n+]1ccc(N(C)C)cc1.O=S(=O)([N-]S(=O)(=O)C(F)(F)F)C(F)(F)F | 9.3 ± 0.63 | 8.99 ± 0.61 | 7.79 ± 0.53 |
| CC1CCCCC1 [methylcyclohexane] + CCCOC[n+]1ccn(C)c1.F[B-](F)(F)F | 76 ± 5.2 | 70.4 ± 4.8 | 59.7 ± 4.1 |
| CC1CCCCC1 [methylcyclohexane] + CCCOC[n+]1ccn(C)c1.N#C[N-]C#N | 44.3 ± 3 | 39.6 ± 2.7 | 35.6 ± 2.4 |
| CC1CCCCC1 [methylcyclohexane] + CCCOC[n+]1ccn(C)c1.O=S(=O)([N-]S(=O)(=O)C(F)(F)F)C(F)(F)F | 13 ± 0.89 | 12.9 ± 0.88 | 13 ± 0.89 |
| CC1CCCCC1 [methylcyclohexane] + CCCOC[n+]1ccn(Cc2ccccc2)c1.N#C[N-]C#N | 21.3 ± 1.5 | 20.4 ± 1.4 | 18.2 ± 1.2 |
| CC1CCCCC1 [methylcyclohexane] + CCCOC[n+]1ccn(Cc2ccccc2)c1.O=S(=O)([N-]S(=O)(=O)C(F)(F)F)C(F)(F)F | 6.47 ± 0.44 | 6.14 ± 0.42 | 5.7 ± 0.39 |
| CC1CCCCC1 [methylcyclohexane] + CN(C)c1cc[n+](COCCCOC[n+]2ccc(N(C)C)cc2)cc1.O=S(=O)([N-]S(=O)(=O)C(F)(F)F)C(F)(F)F.O=S(=O)([N-]S(=O)(=O)C(F)(F)F)C(F)(F)F | 13.9 ± 0.95 | 12.7 ± 0.87 | 11.8 ± 0.8 |
| CC1CCCCC1 [methylcyclohexane] + Cn1cc[n+](COCCCOC[n+]2ccn(C)c2)c1.O=S(=O)([N-]S(=O)(=O)C(F)(F)F)C(F)(F)F.O=S(=O)([N-]S(=O)(=O)C(F)(F)F)C(F)(F)F | 21 ± 1.4 | 18.3 ± 1.2 | – |

| Structure (SMILES) | activity coefficient (323.15 K) | activity coefficient (333.15 K) | activity coefficient (343.15 K) |
| --- | --- | --- | --- |
| CC1CCCC1 [methylcyclopentane] + CCCCCCCCn1cc[n+](COCCC)c1C.N#C[N-]C#N | 4.37 ± 0.3 | 4.16 ± 0.28 | 4.16 ± 0.28 |
| CC1CCCC1 [methylcyclopentane] + CCCCCCCCn1cc[n+](COCCC)c1C.O=S(=O)([N-]S(=O)(=O)C(F)(F)F)C(F)(F)F | 2.72 ± 0.19 | 2.41 ± 0.16 | 2.27 ± 0.15 |
| CC1CCCC1 [methylcyclopentane] + CCCCCCCCn1cc[n+](COCCCOC[n+]2ccn(CCCCCCCC)c2C)c1C.N#C[N-]C#N.N#C[N-]C#N | 4.75 ± 0.32 | 4.7 ± 0.32 | 4.63 ± 0.32 |
| CC1CCCC1 [methylcyclopentane] + CCCCCCCCn1cc[n+](COCCCOC[n+]2ccn(CCCCCCCC)c2C)c1C.O=S(=O)([N-]S(=O)(=O)C(F)(F)F)C(F)(F)F.O=S(=O)([N-]S(=O)(=O)C(F)(F)F)C(F)(F)F | 2.52 ± 0.17 | 2.23 ± 0.15 | 2.17 ± 0.15 |
| CC1CCCC1 [methylcyclopentane] + CCCOC[n+]1ccc(N(C)C)cc1.O=S(=O)([N-]S(=O)(=O)C(F)(F)F)C(F)(F)F | 7.35 ± 0.5 | 7.22 ± 0.49 | 6.1 ± 0.42 |
| CC1CCCC1 [methylcyclopentane] + CCCOC[n+]1ccn(C)c1.N#C[N-]C#N | 27.7 ± 1.9 | 24.4 ± 1.7 | – |
| CC1CCCC1 [methylcyclopentane] + CCCOC[n+]1ccn(Cc2ccccc2)c1.N#C[N-]C#N | 15.7 ± 1.1 | 15.2 ± 1 | 13.5 ± 0.92 |
| CC1CCCC1 [methylcyclopentane] + CCCOC[n+]1ccn(Cc2ccccc2)c1.O=S(=O)([N-]S(=O)(=O)C(F)(F)F)C(F)(F)F | 5.48 ± 0.37 | 4.46 ± 0.3 | 4.02 ± 0.27 |
| CC1CCCC1 [methylcyclopentane] + CN(C)c1cc[n+](COCCCOC[n+]2ccc(N(C)C)cc2)cc1.O=S(=O)([N-]S(=O)(=O)C(F)(F)F)C(F)(F)F.O=S(=O)([N-]S(=O)(=O)C(F)(F)F)C(F)(F)F | 11 ± 0.75 | 9.51 ± 0.65 | 9 ± 0.61 |
| CC1CCCC1 [methylcyclopentane] + Cn1cc[n+](COCCCOC[n+]2ccn(C)c2)c1.O=S(=O)([N-]S(=O)(=O)C(F)(F)F)C(F)(F)F.O=S(=O)([N-]S(=O)(=O)C(F)(F)F)C(F)(F)F | 16.4 ± 1.1 | 10.2 ± 0.7 | – |
| C[N+](=O)[O-] [nitromethane] + CCCCCCCCn1cc[n+](COCCC)c1C.N#C[N-]C#N | 0.68 ± 0.05 | 0.66 ± 0.05 | 0.63 ± 0.04 |
| C[N+](=O)[O-] [nitromethane] + CCCCCCCCn1cc[n+](COCCC)c1C.O=S(=O)([N-]S(=O)(=O)C(F)(F)F)C(F)(F)F | 0.56 ± 0.04 | 0.52 ± 0.04 | 0.52 ± 0.04 |
| C[N+](=O)[O-] [nitromethane] + CCCCCCCCn1cc[n+](COCCCOC[n+]2ccn(CCCCCCCC)c2C)c1C.N#C[N-]C#N.N#C[N-]C#N | 0.44 ± 0.04 | 0.43 ± 0.04 | 0.42 ± 0.04 |
| C[N+](=O)[O-] [nitromethane] + CCCCCCCCn1cc[n+](COCCCOC[n+]2ccn(CCCCCCCC)c2C)c1C.O=S(=O)([N-]S(=O)(=O)C(F)(F)F)C(F)(F)F.O=S(=O)([N-]S(=O)(=O)C(F)(F)F)C(F)(F)F | 0.31 ± 0.03 | 0.29 ± 0.03 | 0.47 ± 0.04 |
| C[N+](=O)[O-] [nitromethane] + CCCOC[n+]1ccc(N(C)C)cc1.O=S(=O)([N-]S(=O)(=O)C(F)(F)F)C(F)(F)F | 0.54 ± 0.04 | 0.55 ± 0.04 | 0.54 ± 0.04 |
| C[N+](=O)[O-] [nitromethane] + CCCOC[n+]1ccn(C)c1.F[B-](F)(F)F | 0.65 ± 0.04 | 0.66 ± 0.05 | 0.67 ± 0.05 |
| C[N+](=O)[O-] [nitromethane] + CCCOC[n+]1ccn(C)c1.N#C[N-]C#N | 0.69 ± 0.05 | 0.7 ± 0.05 | 0.73 ± 0.05 |
| C[N+](=O)[O-] [nitromethane] + CCCOC[n+]1ccn(C)c1.O=S(=O)([N-]S(=O)(=O)C(F)(F)F)C(F)(F)F | 0.55 ± 0.04 | 0.53 ± 0.04 | 0.53 ± 0.04 |
| C[N+](=O)[O-] [nitromethane] + CCCOC[n+]1ccn(Cc2ccccc2)c1.F[B-](F)(F)F | 0.58 ± 0.04 | 0.57 ± 0.04 | 0.58 ± 0.04 |
| C[N+](=O)[O-] [nitromethane] + CCCOC[n+]1ccn(Cc2ccccc2)c1.N#C[N-]C#N | 1.06 ± 0.07 | 0.71 ± 0.05 | 0.72 ± 0.05 |
| C[N+](=O)[O-] [nitromethane] + CCCOC[n+]1ccn(Cc2ccccc2)c1.O=S(=O)([N-]S(=O)(=O)C(F)(F)F)C(F)(F)F | 0.46 ± 0.04 | 0.4 ± 0.03 | 0.4 ± 0.03 |
